Reference: patent US11957680B2, “Pyruvate kinase activators for use in treating blood disorders” (Agios Pharmaceuticals, Inc., priority 2017, dated 2024)

Key:
wild type PKR [1] = molecular target: T1, wild type PKR (Homo sapiens, UniProt P30613); assay: Cell based ATP assay in purified red blood cells (Cell-Titer-Glo); set-up: endogenous in cells; host or cells: purified red blood cells from healthy volunteers; details: overnight at 37° C., ATP levels
Method in brief: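 ATP levels were quantified by Cell-Titer-Glo after overnight 37 °C exposure of cells to compound (1:4 dilution series, 0.1% DMSO final). The cells were human erythrocytes, filter-purified to remove leukocytes and plated at 1×10^7 cells/mL in AGAM medium.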

wild type PKR [2] = molecular target: T1, wild type PKR; assay: PKR (wild type) enzyme AC50 assay, LDH/NADH-coupled, absorbance at 340 nm; assay type: biochemical; details: for AC50: Table 2, enzyme assay, read-out: PKR WT AC50; for EC50: read-out: PKR WT
Method in brief: (§1)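 In this coupled kinetic format, PKR converts PEP and ADP to pyruvate, which LDH reduces while oxidising NADH. Test compounds, diluted from 10 mM DMSO stocks to a 100 μM top concentration, were preincubated 60 min before ADP was added.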

PKR K410E = PKR K410E (Homo sapiens, UniProt P30613, K410E); assay: PKR mutant assay (K410E), AC50, LDH/NADH-coupled, absorbance at 340 nm; assay type: biochemical; details: for AC50: Table 2, enzyme assay; for EC50: Table 4, AC50, enzyme assay
Method in brief: as §1

PKR R510Q = PKR R510Q (Homo sapiens, UniProt P30613, R510Q); assay: PKR mutant assay (R510Q), AC50, LDH/NADH-coupled, absorbance at 340 nm; assay type: biochemical; details: for AC50: Table 2, enzyme assay, read-out: PK R510Q AC50; for EC50: read-out: PK R510Q
Method in brief: as §1

Sequence of PKR K410E (P30613 whole entry K410E): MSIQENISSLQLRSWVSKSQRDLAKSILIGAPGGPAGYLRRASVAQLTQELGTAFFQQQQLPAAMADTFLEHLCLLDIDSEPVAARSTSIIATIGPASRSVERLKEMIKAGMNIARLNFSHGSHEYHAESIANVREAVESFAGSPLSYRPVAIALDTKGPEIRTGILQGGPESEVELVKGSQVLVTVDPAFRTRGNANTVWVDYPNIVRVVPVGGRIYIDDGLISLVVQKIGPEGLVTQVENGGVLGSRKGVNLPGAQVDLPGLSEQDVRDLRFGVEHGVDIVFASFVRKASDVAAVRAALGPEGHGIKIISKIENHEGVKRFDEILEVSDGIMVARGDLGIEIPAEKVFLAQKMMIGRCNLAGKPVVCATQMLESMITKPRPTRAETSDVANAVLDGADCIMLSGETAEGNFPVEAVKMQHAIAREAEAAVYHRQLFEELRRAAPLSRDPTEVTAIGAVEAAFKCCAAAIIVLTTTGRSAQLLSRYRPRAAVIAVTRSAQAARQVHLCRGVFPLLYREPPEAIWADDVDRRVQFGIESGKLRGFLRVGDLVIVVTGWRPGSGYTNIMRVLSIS
T1 sequence (P30613 whole entry): as the sequence (P30613 whole entry K410E) above, with E410K counted along it
Sequence of PKR R510Q (P30613 whole entry R510Q): as the sequence (P30613 whole entry K410E) above, with E410K, R510Q counted along it

SMILES	AC50 (wild type PKR [1]; Table 2, RBCs)	AC50 (wild type PKR [2])	AC50 (PKR K410E)	AC50 (PKR R510Q)	further results
Cn1c2nc(Cc3cncnc3)sc2c2cnn(Cc3cccc4[nH]ncc34)c(=O)c21 [Compound 153]	≤ 1000 nM	> 800 nM	> 800 nM	> 800 nM	–
Cn1c2nc(Cc3ccc4[nH]ncc4c3)sc2c2cnn(Cc3cccc4[nH]ncc34)c(=O)c21 [Compound 154]	≤ 1000 nM	< 300 nM	< 300 nM	< 300 nM	–
Cn1c2nc(Cc3cccc(S(N)(=O)=O)c3)sc2c2cnn(Cc3cccc4[nH]ncc34)c(=O)c21 [Compound 155]	≤ 1000 nM	301 to 800 nM	< 300 nM	< 300 nM	–
Cn1c2nc(Cc3ccc4cn[nH]c4c3)sc2c2cnn(Cc3cccc4[nH]ncc34)c(=O)c21 [Compound 156]	≤ 1000 nM	301 to 800 nM	< 300 nM	< 300 nM	–
Cn1ccc(Cc2nc3c(s2)c2cnn(Cc4cccc5[nH]ncc45)c(=O)c2n3C)n1 [Compound 157]	≤ 1000 nM	< 300 nM	< 300 nM	< 300 nM	–
Cn1c2nc(C(N)=O)sc2c2cnn(Cc3cccc(N)n3)c(=O)c21 [Compound 158]	≤ 1000 nM	< 300 nM	< 300 nM	< 300 nM	–
Cc1cccc(Cc2nc3c(s2)c2cnn(Cc4cccc5[nH]ncc45)c(=O)c2n3C)n1 [Compound 159]	≤ 1000 nM	< 300 nM	< 300 nM	< 300 nM	–
Cn1c2nc(Cc3cc(C(F)(F)F)[nH]n3)sc2c2cnn(Cc3cccc4[nH]ncc34)c(=O)c21 [Compound 160]	≤ 1000 nM	301 to 800 nM	301 to 800 nM	301 to 800 nM	–
Cn1c2nc(Cc3ccncc3)sc2c2cnn(Cc3cccc4[nH]ncc34)c(=O)c21 [Compound 161]	> 1000 nM	> 800 nM	> 800 nM	> 800 nM	–
Cn1c2nc(C(C)(O)c3cc[nH]n3)sc2c2cnn(Cc3cccc4[nH]ncc34)c(=O)c21 (centres unmarked) [Compound 162]	≤ 1000 nM	< 300 nM	< 300 nM	< 300 nM	–
Cn1c2nc(Cc3cccnc3)sc2c2cnn(Cc3cccc4[nH]ncc34)c(=O)c21 [Compound 164]	≤ 1000 nM	< 300 nM	< 300 nM	< 300 nM	–
CCOC(=O)c1scnc1Cc1nc2c(s1)c1cnn(Cc3cccc4[nH]ncc34)c(=O)c1n2C [Compound 165]	≤ 1000 nM	301 to 800 nM	> 800 nM	301 to 800 nM	–
Cn1c2nc(Cc3ccon3)sc2c2cnn(Cc3cccc4[nH]ncc34)c(=O)c21 [Compound 166]	> 1000 nM	301 to 800 nM	> 800 nM	301 to 800 nM	–
Cn1c2nc(Cc3ncsc3CO)sc2c2cnn(Cc3cccc4[nH]ncc34)c(=O)c21 [Compound 167]	≤ 1000 nM	< 300 nM	< 300 nM	< 300 nM	–
Cn1c2nc(Cc3csc(CO)n3)sc2c2cnn(Cc3cccc4[nH]ncc34)c(=O)c21 [Compound 168]	≤ 1000 nM	< 300 nM	< 300 nM	< 300 nM	–
COc1cccc(Cc2nc3c(s2)c2cnn(Cc4cccc5[nH]ncc45)c(=O)c2n3C)n1 [Compound 169]	≤ 1000 nM	< 300 nM	< 300 nM	< 300 nM	–
Cn1c2nc(Cc3cccc(=O)[nH]3)sc2c2cnn(Cc3cccc4[nH]ncc34)c(=O)c21 [Compound 170]	≤ 1000 nM	< 300 nM	< 300 nM	< 300 nM	–
COC(=O)C(c1cc[nH]n1)c1nc2c(s1)c1cnn(Cc3cccc4[nH]ncc34)c(=O)c1n2C (centres unmarked) [Compound 171]	≤ 1000 nM	> 800 nM	301 to 800 nM	> 800 nM	–
Cn1c2nc(Cc3n[nH]cc3C(F)(F)F)sc2c2cnn(Cc3cccc4[nH]ncc34)c(=O)c21 [Compound 172]	> 1000 nM	> 800 nM	> 800 nM	> 800 nM	–
COc1ccc(Cc2nc3c(s2)c2cnn(Cc4cccc5[nH]ncc45)c(=O)c2n3C)cn1 [Compound 173]	≤ 1000 nM	< 300 nM	< 300 nM	< 300 nM	–
Cn1c2nc(Cc3ccc(=O)[nH]c3)sc2c2cnn(Cc3cccc4[nH]ncc34)c(=O)c21 [Compound 174]	–	> 800 nM	301 to 800 nM	> 800 nM	Cell based ATP assay AC50 (wild type PKR [1]; Table 2, RBCs): No Fit
Cn1cc(Cc2nc3c(s2)c2cnn(Cc4cccc5[nH]ncc45)c(=O)c2n3C)cn1 [Compound 186]	–	–	–	–	EC50 (wild type PKR [1]; Table 4, AC50, RBCs): ≤ 1000 nM; EC50 (wild type PKR [2]; Table 4, AC50, enzyme assay): > 800 nM; EC50 (PKR K410E): > 800 nM; EC50 (PKR R510Q; Table 4, AC50, enzyme assay): 301 to 800 nM
Cn1c2nc(-n3cnc(CS(=O)(=O)c4ccccc4)c3)sc2c2cnn(Cc3cccc4[nH]ncc34)c(=O)c21 [Compound 187]	–	–	–	–	Cell based ATP assay (wild type PKR [1]; Table 4, AC50, RBCs): No Fit; PKR WT (wild type PKR [2]; Table 4, AC50, enzyme assay): No Fit; EC50 (PKR K410E): > 800 nM; PK R510Q (PKR R510Q; Table 4, AC50, enzyme assay): No Fit
CC(=O)c1cccc(Cn2ncc3c4sc(Cc5cc[nH]n5)nc4n(C)c3c2=O)c1 [Compound 190]	–	–	–	–	EC50 (wild type PKR [1]; Table 4, AC50, RBCs): ≤ 1000 nM; EC50 (wild type PKR [2]; Table 4, AC50, enzyme assay): < 300 nM; EC50 (PKR K410E): < 300 nM; EC50 (PKR R510Q; Table 4, AC50, enzyme assay): < 300 nM
CC(=O)c1cccc(CC(c2cc[nH]n2)c2nc3c(s2)c2cnn(Cc4cccc(C(C)=O)c4)c(=O)c2n3C)c1 (centres unmarked) [Compound 192]	–	–	–	–	EC50 (wild type PKR [1]; Table 4, AC50, RBCs): > 1000 nM; EC50 (wild type PKR [2]; Table 4, AC50, enzyme assay): > 800 nM; EC50 (PKR K410E): > 800 nM; EC50 (PKR R510Q; Table 4, AC50, enzyme assay): > 800 nM

Now from value to compound, other results behind:

AC50 (wild type PKR [1]; Table 2, RBCs)	AC50 (wild type PKR [2])	AC50 (PKR K410E)	AC50 (PKR R510Q)	SMILES	further results
≤ 1000 nM	< 300 nM	< 300 nM	< 300 nM	Cn1c2nc(Cc3cc[nH]n3)sc2c2cnn(Cc3ccc(C#N)cc3)c(=O)c21 [Compound 175]	–
> 1000 nM	> 800 nM	> 800 nM	> 800 nM	Cn1c2nc(Cc3cc[nH]n3)sc2c2cnn(Cc3ccc(C(N)=O)cc3)c(=O)c21 [Compound 176]	–
≤ 1000 nM	< 300 nM	< 300 nM	< 300 nM	Cn1c2nc(C(N)c3cc[nH]n3)sc2c2cnn(Cc3cccc4[nH]ncc34)c(=O)c21 (centres unmarked) [Compound 177]	–
> 1000 nM	> 800 nM	> 800 nM	> 800 nM	CC(=O)NC(c1cc[nH]n1)c1nc2c(s1)c1cnn(Cc3cccc4[nH]ncc34)c(=O)c1n2C (centres unmarked) [Compound 178]	–
> 1000 nM	> 800 nM	> 800 nM	> 800 nM	Cn1c2nc(NC(=O)Cc3cc[nH]n3)sc2c2cnn(Cc3cccc4[nH]ncc34)c(=O)c21 [Compound 180]	–
≤ 1000 nM	< 300 nM	< 300 nM	< 300 nM	Cn1c2nc(Cc3cccc4cn[nH]c34)sc2c2cnn(Cc3cccc4[nH]ncc34)c(=O)c21 [Compound 181]	–
≤ 1000 nM	< 300 nM	< 300 nM	< 300 nM	Cn1c2nc(Cc3cc[nH]n3)sc2c2cnn(Cc3cccc(C#N)c3)c(=O)c21 [Compound 182]	–
≤ 1000 nM	< 300 nM	< 300 nM	< 300 nM	Cn1c2nc(Cc3cc[nH]n3)sc2c2cnn(Cc3cccc(C(N)=O)c3)c(=O)c21 [Compound 183]	–
≤ 1000 nM	< 300 nM	< 300 nM	< 300 nM	Cn1c2nc(Cc3cn[nH]c3)sc2c2cnn(Cc3cccc4[nH]ncc34)c(=O)c21 [Compound 184]	–
> 1000 nM	> 800 nM	301 to 800 nM	301 to 800 nM	Cn1c2nc(Cc3cnoc3)sc2c2cnn(Cc3cccc4[nH]ncc34)c(=O)c21 [Compound 185]	–
